Reference: patent US20040102454A1, “Phenylahistin and the phenylahistin analogs, a new class of anti-tumor compounds” (priority 1998, published 2004)
pIC50, pKi: −log10 of the molar value. “Also recorded” adds a separate entry of the source.

Columns and labels:
[1] = Solubility of phenylahistin in solvents; assay type: physicochemical
[2] = test system: Aspergillus niger IFO6341; assay: Antimicrobial test, filter paper agar flat plate method; assay type: cell-based; settings: 100 μg of specimen on 9 mm filter paper
Procedure: (§1) Using colibacillus strain JM109 as a gram-negative bacterium, Bacillus natto as a […] and Aspergillus niger IFO6341 as a mold, the following antimicrobial test was conducted by the filter paper agar flat plate method, wherein 100 μg of specimen was placed on 9 mm filter paper, dried in air, and standard agar culture medium was used for bacteria and potato dextrose agar culture medium for mold. […] An antimicrobial test was further conducted by the liquid culture medium dilution method using the yeast strain Saccharomyces cerevisise HF7C.

Bacillus natto = assay: as above; assay type: cell-based; settings: 100 μg of specimen on 9 mm filter paper
Procedure: as §1

[3] = test system: colibacillus strain JM109; assay: as above; assay type: cell-based; settings: 100 μg of specimen on 9 mm filter paper
Procedure: as §1

[4] = test system: yeast strain Saccharomyces cerevisise HF7C; assay: Antimicrobial test, liquid culture medium dilution method; assay type: cell-based
Procedure: as §1

Cell strain A431 = assay: Cell cycle inhibiting activity, flow cytometer and microscopic observation; assay type: cell-based, human
Procedure: Cell strain A431 derived from […] was used. EMEM culture medium containing 10% bovine fetus serum and 1% MEM nonessential amino acid solution (SIGMA M2025) was used to incubate A431 cells at 37° C. in an incubator saturated with 5% carbon dioxide gas and water vapor. The refined specimen of racemic phenylahistin obtained in EXAMPLE 1 was added to the cells in the log-growth phase and progression of the cell cycle was analyzed by flow cytometer and microscopic observation. The results, shown in Table 1, indicate that this phenylahistin was useful as a cell cycle inhibitor.

[5] = test system: Microtubule protein from bovine brain; assay: Microtubule protein polymerization assay (turbidity); assay type: biochemical
[6] = test system: A549 cells (human lung carcinoma); assay: A549 proliferation, Alamar Blue assay; assay type: cell-based
Procedure: Exponentially growing A549 cells were seeded into 96-well tissue culture plates (2×10^3 cells/100 μl/well) and cultured for 16 hours. (−)-PLH or CLC was then added to each well at various concentrations, and the cells were cultured for an additional 48 hours. Live cells were counted using Alamar Blue™ from BioSource International (Camarillo, Calif.) as described in Ahmed, S. A., J. Immunol. Methods, (1994), 170, 211-24.

[7] = test system: phosphocellulose-purified tubulin; assay: Polymerization of purified tubulin (turbidity); assay type: biochemical, bovine
Procedure: Microtubule protein was prepared from bovine brain tissue by two cycles of assembly and disassembly according to the method of Tiwari, S. C. et al. Anal. Biochem, (1993), 215, 96-103. Tubulin was purified from microtubule protein by phosphocellulose chromatography see Algaier, J. et al. Biochim. Biophys. Acta, (1988), 954, 235-43, and tubulin purity was evaluated by polyacrylamide gel electrophoresis, as in Laemmli, U.K., Nature, (1970), […], 680-85. […] Protein concentrations were determined using the Coomassie® Protein Assay Reagent from Pierce (Rockford, Ill.).
Polymerization of microtubule protein was monitored by an increase in turbidity at 37° C. in microtubule assembly buffer containing 100 mM MES, 0.5 mM MgCl2, 1 mM EGTA and 1 mM GTP. See Johnson, K. A. et al., J. Mol. Biol., (1977), 117, 1-31. Polymerization of purified tubulin was measured using the same method except the microtubule assembly buffer contained 4 M glycerol. See Lee, J. C. et al., Biochemistry, (1975), 14, 5183-87. Microtubule protein and tubulin polymerization was initiated by a temperature shift from 0° C. to 37° C. and turbidity was measured on a DU-20 thermocontrolled spectrophotometer from Beckman (Fullerton, Calif.) at 360 nm. Drugs were dissolved in dimethyl sulfoxide (DMSO), which was used in all experiments at a final concentration of 2% (v/v).

bovine brain tubulin [8] = assay: [^3H]CLC binding to tubulin and competition assay; settings: Dixon plot, assuming competitive inhibition; 0.5 μM [^3H]CLC; read-out: estimated Ki value for CLC binding
Procedure: [^3H]CLC binding to tubulin was evaluated by the ultrafiltration method of Takahashi, M., et al., Biochim. Biophys. […] The concentration of unbound [^3H]CLC in the filtrates was determined using a EcoLite™(+) liquid scintillator from ICN Pharmaceuticals Inc. (Costa Mesa, Calif.). Specific bound [^3H]CLC concentrations were determined by adding an excess (×100) of unlabeled CLC to the reaction mixture.
For the competition assay, bovine brain tubulin (0.2 mg/ml) was incubated in the microtubule assembly buffer with 0.5 μM [^3H]CLC and various concentrations of competitors for 20 min at 37° C. [^3H]CLC binding was measured as described above.

bovine brain tubulin [9] = assay: [^3H]VLB binding competition assay; settings: DEAE-cellulose filter method; listed as (−)-PLH

Compound | solubility ([1]; in ethyl acetate, chloroform, methanol, and pyridine) | solubility ([1]; in water, benzene, and toluene) | antimicrobial activity [2] | antimicrobial activity (Bacillus natto) | antimicrobial activity [3] | antimicrobial activity [4] | Inhibiting effect (cell cycle) (Cell strain A431; Concentration 0.5 μg/ml) | Inhibiting effect (cell cycle) (Cell strain A431; Concentration 1.0 μg/ml) | Inhibiting effect (cell cycle) (Cell strain A431; Concentration 2.0 μg/ml) | Inhibiting effect (cell cycle) (Cell strain A431; Concentration 4.0 μg/ml) | Inhibiting effect (cell cycle) (Cell strain A431; Concentration 8.0 μg/ml) | Inhibiting effect (cell cycle) (Cell strain A431; Concentration 32.0 μg/ml) | polymerization of microtubule protein ([5]; 80 μM) | turbidity increase at high concentration ([5]; concentrations up to 200 μM) | pIC50 ([5]; microtubule protein 1.5 mg/ml (Table 4), read-out: IC50 for Microtubule Protein Polymerization) | pIC50 ([6]; Homo sapiens, A549, read-out: 50% inhibitory concentration (IC50), proliferation of A549 cells, 48 hours) | fold less potent than CLC, A549 proliferation ([6]; versus CLC under the assay conditions) [fold] | inhibition of tubulin polymerization compared with CLC [7] | pKi (bovine brain tubulin [8]) | effect on [^3H]VLB binding to tubulin (bovine brain tubulin [9])
C=CC(C)(C)c1[nH]cnc1/C=C1\NC(=O)[C@H](Cc2ccccc2)NC1=O (racemic) [PLH, phenylahistin] | soluble | only slightly soluble | No antimicrobial activity | No antimicrobial activity | No antimicrobial activity | no antimicrobial activity | Absent (Absent: The cell cycle stopped at the G2/M phase in less than 10% of the cells.) | Absent (Absent: The cell cycle stopped at the G2/M phase in less than 10% of the cells.) | Slight (Slight: The cell cycle stopped at the G2/M phase in not less than 10% and less than 50% of the cells.) | Slight (Slight: The cell cycle stopped at the G2/M phase in not less than 10% and less than 50% of the cells.) | Present (Present: The cell cycle stopped at the G2/M phase in not less that 50% of the cells.) | Present (Present: The cell cycle stopped at the G2/M phase in not less that 50% of the cells.) | – | – | – | – | – | – | – | –
C=CC(C)(C)c1[nH]cnc1/C=C1\NC(=O)[C@H](Cc2ccccc2)NC1=O [(−)-phenylahistin] | – | – | – | – | – | – | – | – | – | – | – | – | completely inhibited | did not increase the turbidity | 4.60 | 6.52 | 5 | as effective as CLC | 5.13 | not inhibited; also recorded: slightly enhanced
